According to patent publication US7964531B2, “3-phenoxy-4-pyridazinol derivatives and herbicidal composition containing the same” (Mitsui Chemicals Agro, Inc., priority 2001, dated 2011):

Experiments:
Type in all cases: in vivo
Settings in all cases: wettable powder applied 3 days after transplanting, judged after 25 days
[1] = tested on: transplanted paddy-field rice; experiment: Test Example 1: crop injury against transplanted paddy-field rice
In short: (§1)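 Greenhouse, flooded paddy soil; weeds from seed (top 1 cm), C. serotinus from germinated tubers, rice transplanted at 2.2-leaf stage. WP diluted in water, applied to pot day 3 post-transplant. Scored day 25 post-treatment, 0–5 inhibition scale.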

Cyperus serotinus = experiment: Test Example 1: herbicidal effects, paddy-field pot test
In short: as §1

Scirpus joncoides = experiment: as above
In short: as §1

[2] = tested on: annual broad-leaved weeds (Lindernia spp., Rotala indica); experiment: as above
In short: as §1

[3] = tested on: barnyardgrass (Echinochloa oryzicola Vasing.); experiment: as above
In short: as §1

Compound | Crop injury against transplanted rice ([1]; chemical dosage 12.5 g/a) | Crop injury against transplanted rice ([1]; chemical dosage 25 g/a) | Herbicidal effects Cyperus serotinus (Cyperus serotinus; chemical dosage 12.5 g/a) | Herbicidal effects Cyperus serotinus (Cyperus serotinus; chemical dosage 25 g/a) | Herbicidal effects Scirpus joncoides (Scirpus joncoides; chemical dosage 12.5 g/a) | Herbicidal effects Scirpus joncoides (Scirpus joncoides; chemical dosage 25 g/a) | Herbicidal effects Broad leaf ([2]; chemical dosage 12.5 g/a) | Herbicidal effects Broad leaf ([2]; chemical dosage 25 g/a) | Herbicidal effects Barnyard grass ([3]; chemical dosage 12.5 g/a) | Herbicidal effects Barnyard grass ([3]; chemical dosage 25 g/a) | Crop injury against transplanted rice ([1]; chemical dosage 10 g/a) | Crop injury against transplanted rice ([1]; chemical dosage 20 g/a) | Herbicidal effects Cyperus serotinus (Cyperus serotinus; chemical dosage 10 g/a) | Herbicidal effects Cyperus serotinus (Cyperus serotinus; chemical dosage 20 g/a) | Herbicidal effects Scirpus joncoides (Scirpus joncoides; chemical dosage 10 g/a) | Herbicidal effects Scirpus joncoides (Scirpus joncoides; chemical dosage 20 g/a) | Herbicidal effects Broad leaf ([2]; chemical dosage 10 g/a) | Herbicidal effects Broad leaf ([2]; chemical dosage 20 g/a) | Herbicidal effects Barnyard grass ([3]; chemical dosage 10 g/a) | Herbicidal effects Barnyard grass ([3]; chemical dosage 20 g/a)
CCc1cccc(Cl)c1Oc1nnc(Cl)cc1O [Example 243] | 0 (Growth inhibition rate; 0 to 10%) | 0 (Growth inhibition rate; 0 to 10%) | 5 (Growth inhibition rate; 91 to 100%) | 5 (Growth inhibition rate; 91 to 100%) | 4 (Growth inhibition rate; 71 to 90%) | 4 (Growth inhibition rate; 71 to 90%) | 5 (Growth inhibition rate; 91 to 100%) | 5 (Growth inhibition rate; 91 to 100%) | 1 (Growth inhibition rate; 11 to 30%) | 2 (Growth inhibition rate; 31 to 50%) |  |  |  |  |  |  |  |  |  | 
CCc1cccc(Br)c1Oc1nnc(Cl)cc1O [Example 250] |  |  |  |  |  |  |  |  |  |  | 0 (Growth inhibition rate; 0 to 10%) | 0 (Growth inhibition rate; 0 to 10%) | 5 (Growth inhibition rate; 91 to 100%) | 5 (Growth inhibition rate; 91 to 100%) | 5 (Growth inhibition rate; 91 to 100%) | 5 (Growth inhibition rate; 91 to 100%) | 5 (Growth inhibition rate; 91 to 100%) | 5 (Growth inhibition rate; 91 to 100%) | 3 (Growth inhibition rate; 51 to 70%) | 4 (Growth inhibition rate; 71 to 90%)
Oc1cc(Cl)nnc1Oc1c(Br)cccc1C1CC1 [Example 253] |  |  |  |  |  |  |  |  |  |  | 5 (Growth inhibition rate; 91 to 100%) | 5 (Growth inhibition rate; 91 to 100%) | 5 (Growth inhibition rate; 91 to 100%) | 5 (Growth inhibition rate; 91 to 100%) | 5 (Growth inhibition rate; 91 to 100%) | 5 (Growth inhibition rate; 91 to 100%) | 5 (Growth inhibition rate; 91 to 100%) | 5 (Growth inhibition rate; 91 to 100%) | 3 (Growth inhibition rate; 51 to 70%) | 4 (Growth inhibition rate; 71 to 90%)
COc1cccc(Br)c1Oc1nnc(Cl)cc1O [Example 255] |  |  |  |  |  |  |  |  |  |  | 0 (Growth inhibition rate; 0 to 10%) | 2 (Growth inhibition rate; 31 to 50%) | 5 (Growth inhibition rate; 91 to 100%) | 5 (Growth inhibition rate; 91 to 100%) | 4 (Growth inhibition rate; 71 to 90%) | 4 (Growth inhibition rate; 71 to 90%) | 5 (Growth inhibition rate; 91 to 100%) | 5 (Growth inhibition rate; 91 to 100%) | 5 (Growth inhibition rate; 91 to 100%) | 5 (Growth inhibition rate; 91 to 100%)
CCc1cccc(C)c1Oc1nnc(Cl)cc1O [Example 260] |  |  |  |  |  |  |  |  |  |  | 0 (Growth inhibition rate; 0 to 10%) | 0 (Growth inhibition rate; 0 to 10%) | 5 (Growth inhibition rate; 91 to 100%) | 5 (Growth inhibition rate; 91 to 100%) | 5 (Growth inhibition rate; 91 to 100%) | 5 (Growth inhibition rate; 91 to 100%) | 5 (Growth inhibition rate; 91 to 100%) | 5 (Growth inhibition rate; 91 to 100%) | 2 (Growth inhibition rate; 31 to 50%) | 3 (Growth inhibition rate; 51 to 70%)
Cc1cccc(C(C)C)c1Oc1nnc(Cl)cc1O [Example 261] |  |  |  |  |  |  |  |  |  |  | 0 (Growth inhibition rate; 0 to 10%) | 0 (Growth inhibition rate; 0 to 10%) | 5 (Growth inhibition rate; 91 to 100%) | 5 (Growth inhibition rate; 91 to 100%) | 4 (Growth inhibition rate; 71 to 90%) | 5 (Growth inhibition rate; 91 to 100%) | 5 (Growth inhibition rate; 91 to 100%) | 5 (Growth inhibition rate; 91 to 100%) | 2 (Growth inhibition rate; 31 to 50%) | 2 (Growth inhibition rate; 31 to 50%)
COc1cccc(C)c1Oc1nnc(Cl)cc1O [Example 267] |  |  |  |  |  |  |  |  |  |  | 0 (Growth inhibition rate; 0 to 10%) | 0 (Growth inhibition rate; 0 to 10%) | 5 (Growth inhibition rate; 91 to 100%) | 5 (Growth inhibition rate; 91 to 100%) | 4 (Growth inhibition rate; 71 to 90%) | 5 (Growth inhibition rate; 91 to 100%) | 5 (Growth inhibition rate; 91 to 100%) | 5 (Growth inhibition rate; 91 to 100%) | 1 (Growth inhibition rate; 11 to 30%) | 2 (Growth inhibition rate; 31 to 50%)
CCc1cccc(CC)c1Oc1nnc(Cl)cc1O [Example 268] | 1 (Growth inhibition rate; 11 to 30%) | 1 (Growth inhibition rate; 11 to 30%) | 5 (Growth inhibition rate; 91 to 100%) | 5 (Growth inhibition rate; 91 to 100%) | 5 (Growth inhibition rate; 91 to 100%) | 5 (Growth inhibition rate; 91 to 100%) | 5 (Growth inhibition rate; 91 to 100%) | 5 (Growth inhibition rate; 91 to 100%) | 0 (Growth inhibition rate; 0 to 10%) | 1 (Growth inhibition rate; 11 to 30%) |  |  |  |  |  |  |  |  |  | 
CCc1cccc(C2CC2)c1Oc1nnc(Cl)cc1O [Example 269] |  |  |  |  |  |  |  |  |  |  | 3 (Growth inhibition rate; 51 to 70%) | 5 (Growth inhibition rate; 91 to 100%) | 5 (Growth inhibition rate; 91 to 100%) | 5 (Growth inhibition rate; 91 to 100%) | 5 (Growth inhibition rate; 91 to 100%) | 5 (Growth inhibition rate; 91 to 100%) | 5 (Growth inhibition rate; 91 to 100%) | 5 (Growth inhibition rate; 91 to 100%) | 2 (Growth inhibition rate; 31 to 50%) | 3 (Growth inhibition rate; 51 to 70%)
CC(C)c1cccc(C2CC2)c1Oc1nnc(Cl)cc1O [Example 272] |  |  |  |  |  |  |  |  |  |  | 0 (Growth inhibition rate; 0 to 10%) | 0 (Growth inhibition rate; 0 to 10%) | 4 (Growth inhibition rate; 71 to 90%) | 4 (Growth inhibition rate; 71 to 90%) | 4 (Growth inhibition rate; 71 to 90%) | 5 (Growth inhibition rate; 91 to 100%) | 5 (Growth inhibition rate; 91 to 100%) | 5 (Growth inhibition rate; 91 to 100%) | 0 (Growth inhibition rate; 0 to 10%) | 0 (Growth inhibition rate; 0 to 10%)
CC(C)(C)c1cccc(C2CC2)c1Oc1nnc(Cl)cc1O [Example 274] |  |  |  |  |  |  |  |  |  |  | 0 (Growth inhibition rate; 0 to 10%) | 0 (Growth inhibition rate; 0 to 10%) | 4 (Growth inhibition rate; 71 to 90%) | 4 (Growth inhibition rate; 71 to 90%) | 3 (Growth inhibition rate; 51 to 70%) | 4 (Growth inhibition rate; 71 to 90%) | 5 (Growth inhibition rate; 91 to 100%) | 5 (Growth inhibition rate; 91 to 100%) | 3 (Growth inhibition rate; 51 to 70%) | 3 (Growth inhibition rate; 51 to 70%)
